Experiments:
[1] = system: Normal human vaginal epithelial cells; assay: Periodic acid Schiff (PAS) assay for glycogen-positive cells; format: cell-based; conditions: 10^-5 M, five days after treatment, manually counted, vs control medium
Experimental: (§1) Normal human vaginal epithelial cells from Clonetics (NHVE 5164) were subcultured in basal PrEBM (Clonetics CC 3165) within 96 well plates at 37° C., 5% CO2. Cells were then exposed to medium containing mannose-6-phosphate (Sigma, M3655) at a concentration of 10^−5 M. Control groups received culture medium without mannose-6-phosphate. Cell proliferation was examined three days later and glycogen positive cells were detected five days after mannose-6-phosphate treatment.
A periodic acid Schiff (PAS) assay was used to detect glycogen levels. Before the assay, cells were washed with PBS and fixed with a 10 vol % Formalin/ethanol solution for 1 hour at room temperature, followed by continuous rinsing with deionized (DI) water for 1 minute. A Harleco® PAS Assay Kit (from EM Science 64945/43) was used for glycogen detection. The basic principle is that the hydroxy groups on the glycogen units were first oxidized into aldehyde groups by periodic acid, and the aldehyde groups reacted with Schiff's agent to produce a red colorant. The specific assay operations were all done at room temperature as follows: • 1. Periodic acid reagent was added to the well/chamber and allowed to stand for 10 minutes. • 2. […] The numbers of glycogen-stained positive cells were manually counted under microscope. The data was analyzed by student's t test, and p<0.05 was considered significant. […]

[2] = system: Normal human vaginal epithelial cells; assay: Cell proliferation, CellTiter 96 Aqueous One Solution; format: cell-based; conditions: 10^-5 M, three days after treatment, absorbance at 490 nm, vs control medium, p<0.05
Experimental: as §1, with “treatment. Cell proliferation was examined by using CellTiter 96 Aqueous One Solution from Promega (#TB245). Twenty μl of the reagent was added to each well. The plates were returned to cell culture incubator for 3 hours. The absorbance in each well was measured at 490 nm with a microtiter reader.” for “treatment.”

`O=C[C@@H](O)[C@@H](O)[C@H](O)[C@H](O)COP(=O)(O)O` [mannose-6-phosphate] was tested, and the “number of glycogen-positive cells” value [1] was “significantly higher” and the vaginal cell proliferation [2] was “significantly (p<0.05) increased”.

Source: patent US20080057107A1, “COMPOSITIONS FOR VAGINAL TREATMENT” (Kimberly-Clark Worldwide, Inc., priority 2004, published 2008)
